Measurements from patent US7615551B2, “Salicylate and gentisate salts of a piperazine compound” (Solvay Pharmaceuticals, B.V., priority 2005, dated 2009).

How the values were obtained:
[1] = Water solubility; assay type: physicochemical; conditions: excess solid salt in water, equilibrated at least 24 hours, filtered, HPLC-UV; resulting pH 5.8
Method: Water solubility was determined by combining an excess amount of solid salt with ˜2 mL D1 water in a 4 mL glass screw-cap vial and equilibrating for at least 24 hours on an end-over-end rotator. The resulting suspensions were filtered through a 0.22 μm PVDF filter and assayed by high pressure liquid chromatography with quantitation by UV against standards of compound 1.

[2] = biological target: D2 receptors (Homo sapiens, UniProt P14416); conditions: cited from earlier work
[3] = tested on: catalepsy; conditions: rodents; cited from earlier work
[4] = in vivo; cited from earlier work
[5] = biological target: 5HT reuptake (Homo sapiens, UniProt P31645); conditions: in therapeutic models; cited from earlier work
5HT reuptake, sequence (P31645 whole entry): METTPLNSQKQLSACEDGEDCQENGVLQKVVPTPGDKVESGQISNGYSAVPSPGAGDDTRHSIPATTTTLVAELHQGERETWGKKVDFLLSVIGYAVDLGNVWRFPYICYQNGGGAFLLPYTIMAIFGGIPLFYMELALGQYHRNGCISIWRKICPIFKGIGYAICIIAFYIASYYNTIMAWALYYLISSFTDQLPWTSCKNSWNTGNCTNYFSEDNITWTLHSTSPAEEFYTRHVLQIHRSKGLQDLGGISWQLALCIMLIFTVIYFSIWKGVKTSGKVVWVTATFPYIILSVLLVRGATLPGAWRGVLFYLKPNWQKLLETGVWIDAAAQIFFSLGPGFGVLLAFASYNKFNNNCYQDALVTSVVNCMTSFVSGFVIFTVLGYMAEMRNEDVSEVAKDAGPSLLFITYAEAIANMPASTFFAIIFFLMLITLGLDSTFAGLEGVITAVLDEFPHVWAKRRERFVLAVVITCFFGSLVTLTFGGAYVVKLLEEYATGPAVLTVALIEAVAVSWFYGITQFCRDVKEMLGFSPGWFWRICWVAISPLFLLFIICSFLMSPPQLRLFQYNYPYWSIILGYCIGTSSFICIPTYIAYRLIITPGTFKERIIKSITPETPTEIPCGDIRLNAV

D2 receptors, sequence (P14416 whole entry): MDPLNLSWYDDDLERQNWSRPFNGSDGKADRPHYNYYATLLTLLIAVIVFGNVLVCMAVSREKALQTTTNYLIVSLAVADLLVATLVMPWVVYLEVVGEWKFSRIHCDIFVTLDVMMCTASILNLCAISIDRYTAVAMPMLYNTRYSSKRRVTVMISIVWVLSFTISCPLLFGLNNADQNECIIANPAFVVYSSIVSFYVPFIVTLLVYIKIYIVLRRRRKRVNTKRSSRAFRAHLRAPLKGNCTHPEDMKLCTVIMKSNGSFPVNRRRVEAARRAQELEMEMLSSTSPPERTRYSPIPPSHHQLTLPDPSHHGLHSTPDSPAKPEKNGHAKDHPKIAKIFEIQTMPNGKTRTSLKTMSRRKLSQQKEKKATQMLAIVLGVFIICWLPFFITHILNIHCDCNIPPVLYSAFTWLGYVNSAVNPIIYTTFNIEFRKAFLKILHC

| SMILES | water solubility [1] | activity at D2 receptors [2] | propensity to induce catalepsy [3] | activity in therapeutic models sensitive to antipsychotics, antidepressants, anxiolytics, Parkinson's disease [4] | activity against 5HT reuptake [5] |
| --- | --- | --- | --- | --- | --- |
| CC1Oc2c(cccc2N2CCN(CCCc3c[nH]c4ccc(F)cc34)CC2)NC1=O (stereo not drawn) [compound 3] | 500 µg/mL (freebase equivalent) | – | – | – | – |
| CC1Oc2c(cccc2N2CCN(CCCc3c[nH]c4ccc(F)cc34)CC2)NC1=O (stereo not drawn) [compound 1, 8-{4-[3-(5-fluoro-1H-indol-3-yl)-propyl]-piperazin-1-yl}-2-methyl-4H-benzo[1,4]oxazin-3-one] | – | antagonistic activity | low propensity to induce catalepsy | active | inhibitory activity |
| CC1Oc2c(cccc2N2CCN(CCCc3c[nH]c4ccc(F)cc34)CC2)NC1=O (stereo not drawn) [compound 2] | 1600 µg/mL (freebase equivalent) | – | – | – | – |
